We go through 23 compounds from patent US10336730B2, “Substituted glycine derived FXIA inhibitors” (BRISTOL-MYERS SQUIBB COMPANY, priority 2015, dated 2019).

A word on the pKi: it is −log10 of the Ki, conventionally taken in molar units. Low readings indicate a high Ki, high ones a low Ki.

The experiment concerns the target T1, purified human Factor XIa (Homo sapiens, UniProt P03951).
T1 construct: purchased Haematologic Technologies
Nature of the experiment: Factor XIa enzyme inhibition assay (chromogenic substrate S-2366), Ki. It is filed as biochemical. Conditions: substrate S-2366, pH 7.4. Here is the method: The effectiveness of compounds of the present invention as inhibitors of the coagulation Factors XIa, VIIa, IXa, Xa, XIIa, plasma kallikrein, thrombin, chemytrypsin or trypsin can be determined using a relevant purified serine protease, respectively, and an appropriate synthetic substrate. The rate of hydrolysis of the chromogenic or fluorogenic substrate by the relevant serine protease was measured both in the absence and presence of compounds of the present invention. […] A decrease in the rate of absorbance or fluorescence change in the presence of inhibitor is indicative of enzyme inhibition. Such methods are known to one skilled in the art. The results of this assay are expressed as the inhibitory constant, Ki.
Factor XIa determinations were made in 50 mM HEPES buffer at pH 7.4 containing 145 mM NaCl, 5 mM KCl, and 0.1% PEG 8000 (polyethylene glycol; JT Baker or Fisher Scientific). Determinations were made using purified human Factor XIa at a final concentration of […] (Haematologic Technologies) and the synthetic substrate S-2366 (pyroGlu-Pro-Arg-pNA; CHROMOGENIX® or AnaSpec) at a concentration of 0.0002-0.001 M.
Values of Ki were determined by allowing the protease to react with the substrate in the presence of the inhibitor. Reactions were allowed to go for periods of 20-180 minutes (depending on the protease) and the velocities (rate of absorbance or fluorescence change versus time) were measured. The following relationships were used to calculate Ki values: (Vmax*S)/(Km+S) (vo−vs)/vs=I/(Ki*(1+S/Km)) for a competitive inhibitor with one binding site; or vs/vo=A+(B−A)/(1+(IC50/(I)^n)); and Ki=IC50/(1+S/Km) for a competitive inhibitor where: […]

pKi: −log10 of the molar value.

T1 sequence (P03951 388-625 limits assumed): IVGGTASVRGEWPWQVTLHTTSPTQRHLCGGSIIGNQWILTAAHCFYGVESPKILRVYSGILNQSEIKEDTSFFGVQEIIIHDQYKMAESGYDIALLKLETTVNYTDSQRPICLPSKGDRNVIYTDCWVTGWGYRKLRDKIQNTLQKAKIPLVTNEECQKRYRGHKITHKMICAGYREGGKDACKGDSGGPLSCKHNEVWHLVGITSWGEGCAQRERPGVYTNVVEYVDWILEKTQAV
T1 sequence (P03951 19-387 partner limits assumed): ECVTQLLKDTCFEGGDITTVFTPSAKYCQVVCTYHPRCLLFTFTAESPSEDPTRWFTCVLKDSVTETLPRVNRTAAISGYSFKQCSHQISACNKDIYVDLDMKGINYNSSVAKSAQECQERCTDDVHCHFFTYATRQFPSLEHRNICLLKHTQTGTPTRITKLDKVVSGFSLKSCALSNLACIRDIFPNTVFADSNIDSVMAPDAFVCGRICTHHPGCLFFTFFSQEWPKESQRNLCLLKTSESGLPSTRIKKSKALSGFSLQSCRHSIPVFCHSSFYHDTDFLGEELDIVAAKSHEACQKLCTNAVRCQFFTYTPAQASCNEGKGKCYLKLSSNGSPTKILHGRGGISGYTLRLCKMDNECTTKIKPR

In the case of `Cc1nccn1-c1ccc(NC(=O)[C@H](Cc2ccccc2)n2cnc(-c3cc(Cl)ccc3-n3cc(Cl)nn3)cc2=O)cc1` [Example 93, (S)-2-(4-(5-chloro-2-(4-chloro-1H-1,2,3-triazol-1-yl)phenyl)-6-oxopyrimidin-1(6H)-yl)-N-(4-(2-methyl-1H-imidazol-1-yl)phenyl)-3-phenylpropanamide], the pKi was 6.95.
In turn, `CN(C)C1CCN(C(=O)[C@H](Cc2ccccc2)n2cnc(-c3cc(Cl)ccc3-n3cc(Cl)nn3)cc2=O)CC1` [Example 63, (S)-6-(5-chloro-2-(4-chloro-1H-1,2,3-triazol-1-yl)phenyl)-3-(1-(4-(dimethylamino)piperidin-1-yl)-1-oxo-3-phenylpropan-2-yl)pyrimidin-4(3H)-one] gave a pKi of 5.12.
With `O=C(O)c1ccc(NC(=O)[C@H](Cc2ccccc2)N2CCC(c3cc(Cl)ccc3-n3ccnn3)=CC2=O)cc1` [Example 136, 4-[(2S)-2-{4-[5-chloro-2-(1H-1,2,3-triazol-1-yl)phenyl]-6-oxo-1,2,3,6-tetrahydropyridin-1-yl}-3-phenylpropanamido]benzoic Acid], the pKi is 8.24.
For `O=C([C@H](Cc1ccccc1)n1cnc(-c2cc(Cl)ccc2-n2cc(Cl)nn2)cc1=O)N1CCC(c2ccccc2)CC1` [Example 73, (S)-6-(5-chloro-2-(4-chloro-1H-1,2,3-triazol-1-yl)phenyl)-3-(1-oxo-3-phenyl-1-(4-phenylpiperidin-1-yl)propan-2-yl)pyrimidin-4(3H)-one] the value was 5.35; for `Cc1nc2ccc(CNC(=O)[C@H](Cc3ccccc3)n3cnc(-c4cc(Cl)ccc4-n4cc(Cl)nn4)cc3=O)cc2[nH]1` [Example 116, (S)-2-(4-(5-chloro-2-(4-chloro-1H-1,2,3-triazol-1-yl)phenyl)-6-oxopyrimidin-1(6H)-yl)-N-((2-methyl-1H-benzo[d]imidazol-6-yl)methyl)-3-phenylpropanamide], 6.33; for `O=C(Nc1noc2ccccc12)[C@H](Cc1ccccc1)n1cnc(-c2cc(Cl)ccc2-n2cc(Cl)nn2)cc1=O` [Example 121, (S)-N-(benzo[d]isoxazol-3-yl)-2-(4-(5-chloro-2-(4-chloro-1H-1,2,3-triazol-1-yl)phenyl)-6-oxopyrimidin-1(6H)-yl)-3-phenylpropanamide], 6.80.
Compound `Cn1ccc(CNC(=O)[C@H](Cc2ccccc2)n2cnc(-c3cc(Cl)ccc3-n3cc(Cl)nn3)cc2=O)n1` [Example 105, (S)-2-(4-(5-chloro-2-(4-chloro-1H-1,2,3-triazol-1-yl)phenyl)-6-oxopyrimidin-1(6H)-yl)-N-((1-methyl-1H-pyrazol-3-yl)methyl)-3-phenylpropanamide] had a pKi of 5.64.
For `O=C(Nc1ncn(CC2CCCC2)n1)[C@H](Cc1ccccc1)n1cnc(-c2cc(Cl)ccc2-n2cc(Cl)nn2)cc1=O` [Example 21, (S)-2-(4-(5-chloro-2-(4-chloro-1H-1,2,3-triazol-1-yl)phenyl)-6-oxopyrimidin-1(6H)-yl)-N-(1-(cyclopentylmethyl)-1H-1,2,4-triazol-3-yl)-3-phenylpropanamide] the value was 6.26; for `CC(C)CCNC(=O)[C@H](Cc1ccccc1)n1cnc(-c2cc(Cl)ccc2-n2cc(Cl)nn2)cc1=O` [Example 87, (S)-2-(4-(5-chloro-2-(4-chloro-1H-1,2,3-triazol-1-yl)phenyl)-6-oxopyrimidin-1(6H)-yl)-N-isopentyl-3-phenylpropanamide], 6.68; for `CCn1nc(C)cc1NC(=O)[C@H](Cc1ccccc1)n1cnc(-c2cc(Cl)ccc2-n2cc(Cl)nn2)cc1=O` [Example 44, (S)-2-(4-(5-chloro-2-(4-chloro-1H-1,2,3-triazol-1-yl)phenyl)-6-oxopyrimidin-1(6H)-yl)-N-(1-ethyl-3-methyl-1H-pyrazol-5-yl)-3-phenylpropanamide], 6.40.
As to `O=C1NCc2cc(F)c(NC(=O)[C@H](Cc3ccccc3)n3cnc(-c4cc(Cl)ccc4-n4cc(Cl)nn4)cc3=O)cc21` [Example 38, (S)-2-(4-(5-chloro-2-(4-chloro-1H-1,2,3-triazol-1-yl)phenyl)-6-oxopyrimidin-1(6H)-yl)-N-(6-fluoro-3-oxoisoindolin-5-yl)-3-phenylpropanamide], the pKi was 7.01.
For `O=C(Nc1ccc2[nH]ccc2n1)[C@H](Cc1ccccc1)n1cnc(-c2cc(Cl)ccc2-n2cc(Cl)nn2)cc1=O` [Example 47, (S)-2-(4-(5-chloro-2-(4-chloro-1H-1,2,3-triazol-1-yl)phenyl)-6-oxopyrimidin-1(6H)-yl)-3-phenyl-N-(1H-pyrrolo[3,2-b]pyridin-5-yl)propanamide] the value was 6.81.
For `O=C(Nc1ccc2c(c1)CS(=O)(=O)C2)[C@H](Cc1ccccc1)n1cnc(-c2cc(Cl)ccc2-n2cc(Cl)nn2)cc1=O` [Example 28, (S)-2-(4-(5-chloro-2-(4-chloro-1H-1,2,3-triazol-1-yl)phenyl)-6-oxopyrimidin-1(6H)-yl)-N-(2,2-dioxido-1,3-dihydrobenzo[c]thiophen-5-yl)-3-phenylpropanamide] the value was 7.10; for `O=C(O)C[C@H]1CC[C@H](NC(=O)[C@H](Cc2ccccc2)n2cnc(-c3cc(Cl)ccc3-n3cc(Cl)nn3)cc2=O)CC1` [Example 108, 2-((1S,4r)-4-((S)-2-(4-(5-chloro-2-(4-chloro-1H-1,2,3-triazol-1-yl)phenyl)-6-oxopyrimidin-1(6H)-yl)-3-phenylpropanamido)cyclohexyl)acetic acid], 6.66; for `O=C(Nc1ccc(OC2CCOCC2)cc1)[C@H](Cc1ccccc1)n1cnc(-c2cc(Cl)ccc2-n2cc(Cl)nn2)cc1=O` [Example 41, (S)-2-(4-(5-chloro-2-(4-chloro-1H-1,2,3-triazol-1-yl)phenyl)-6-oxopyrimidin-1(6H)-yl)-3-phenyl-N-(4-((tetrahydro-2H-pyran-4-yl)oxy)phenyl)propanamide], 6.93.
As for `O=C([C@H](Cc1ccccc1)n1cnc(-c2cc(Cl)ccc2-n2cc(Cl)nn2)cc1=O)N1CCn2ncnc2C1` [Example 99, (S)-6-(5-chloro-2-(4-chloro-1H-1,2,3-triazol-1-yl)phenyl)-3-(1-(5,6-dihydro-[1,2,4]triazolo[1,5-a]pyrazin-7(8H)-yl)-1-oxo-3-phenylpropan-2-yl)pyrimidin-4(3H)-one], the pKi was 5.13.
For `N#Cc1cccc(C[C@@H](C(=O)Nc2ccc(C(=O)O)cc2)N2CCC(c3cc(Cl)ccc3-n3ccnn3)=CC2=O)c1` [Compound 138, (S)-4-(2-(4-(5-chloro-2-(1H-1,2,3-triazol-1-yl)phenyl)-6-oxo-3,6-dihydropyridin-1(2H)-yl)-3-(3-cyanophenyl)propanamido) benzoic Acid] the value was 7.38; for `COC(=O)c1cc(NC(=O)[C@H](Cc2ccccc2)n2cnc(-c3cc(Cl)ccc3-n3cc(Cl)nn3)cc2=O)cn1C` [Example 40, methyl (S)-4-(2-(4-(5-chloro-2-(4-chloro-1H-1,2,3-triazol-1-yl)phenyl)-6-oxopyrimidin-1(6H)-yl)-3-phenylpropanamido)-1-methyl-1H-pyrrole-2-carboxylate], 6.76; for `COc1ccc(CNC(=O)[C@H](Cc2ccccc2)n2cnc(-c3cc(Cl)ccc3-n3cc(Cl)nn3)cc2=O)cc1` [Example 75, (S)-2-(4-(5-chloro-2-(4-chloro-1H-1,2,3-triazol-1-yl)phenyl)-6-oxopyrimidin-1(6H)-yl)-N-(4-methoxybenzyl)-3-phenylpropanamide], 5.91.
`Cc1nc2ccc(NC(=O)[C@H](Cc3ccccc3)n3cnc(-c4cc(Cl)ccc4-n4cc(Cl)nn4)cc3=O)cc2o1` [Example 33, (S)-2-(4-(5-chloro-2-(4-chloro-1H-1,2,3-triazol-1-yl)phenyl)-6-oxopyrimidin-1(6H)-yl)-N-(2-methylbenzo[d]oxazol-6-yl)-3-phenylpropanamide] gave a pKi of 7.42.
`O=C([C@H](Cc1ccccc1)n1cnc(-c2cc(Cl)ccc2-n2cc(Cl)nn2)cc1=O)N1CCC(N2C(=O)CCC2O)CC1` (mixture of isomers) [Example 49, 6-(5-chloro-2-(4-chloro-1H-1,2,3-triazol-1-yl)phenyl)-3-((2S)-1-(4-(2-hydroxy-5-oxopyrrolidin-1-yl)piperidin-1-yl)-1-oxo-3-phenylpropan-2-yl)pyrimidin-4(3H)-one]: the pKi is 5.13.
For `CN1[C@@H]2CC[C@H]1C[C@@H](NC(=O)[C@H](Cc1ccccc1)n1cnc(-c3cc(Cl)ccc3-n3cc(Cl)nn3)cc1=O)C2` [Example 54, (S)-2-(4-(5-chloro-2-(4-chloro-1H-1,2,3-triazol-1-yl)phenyl)-6-oxopyrimidin-1(6H)-yl)-N-((1R,3r,5S)-8-methyl-8-azabicyclo[3.2.1]octan-3-yl)-3-phenylpropanamide], the pKi is 5.40.
`CCOC(=O)Cc1ccc(NC(=O)[C@H](Cc2ccccc2)n2cnc(-c3cc(Cl)ccc3-n3cc(Cl)nn3)cc2=O)cc1` [Example 20, ethyl (S)-2-(4-(2-(4-(5-chloro-2-(4-chloro-1H-1,2,3-triazol-1-yl)phenyl)-6-oxopyrimidin-1(6H)-yl)-3-phenylpropanamido)phenyl)acetate]: the pKi is 6.89.
